Laboratory results taken from patent US9221838B2, “Inhibitors of AKT activity” (ALMAC DISCOVERY LIMITED, priority 2009, dated 2015).

Columns and labels:
Assay type in all cases: biochemical
AKT1 = biological target: T1, AKT1 (Homo sapiens, UniProt P31749); assay: AKT Kinase Assay (IMAP fluorescent polarisation) vs AKT1
T1 construct: purchased SignalChem
Method: (§1) Testing of the compounds was performed using an AKT Kinase Assay:
(§2) Activated AKT isoforms 1, 2 and 3 were assayed utilising a 5′ FAM Crosstide (Seq. GRPRTSSFAEG-OH)(SEO ID NO: 1). The extent of kinase phosphorylation was determined by fluorescent polarisation using IMAP progressive binding reagent, which introduces binding beads which allow the reagent to specifically bind to phosphate residues via covalent co-ordination complex bonds.
(§3) iMAP binding solution stops Crosstide/kinase interaction and specifically binds phosphorylated substrates. The degree of phosphorylation is determined by fluorescent polarisation (excitation 485 nm; emission 528 nm) or the reduction in speed of rotation of the excited substrate.
(§4) The following materials were used in the assay: • a) Activated AKT isoforms (SignalChem.) dissolved in Complete Reaction buffer at a pre-determined concentration selected so that the assay was carried out in the linear range. • b) AKT substrate peptide: FAM Crosstide (R7110) Molecular Devices, diluted in complete reaction buffer. • c) iMAP Progressive Screening Express Kit (R8127) Molecular Devices • d) Complete Reaction Buffer containing 0.1% BSA, 10 mM Tris-HCl, 10 mM MgCl2, 0.05% NaN3 and 0.01% phosphate free BSA, 1 mM DTT • e) Progressive Binding Solution containing 75% Buffer A, 25% Buffer B and low volume Binding Reagent which contains the binding entity for the assay • f) ATP diluted in complete reaction buffer • g) Black polystyrene 384 well assay plates (Nunc). • h) Biotek Synergy 4 Hybrid Plate reader.
(§5) 5 μl of test compound was dissolved in DMSO (Sigma Aldrich) and serially diluted in complete reaction buffer to give a fourteen point half log dose response and plated into 384 well black plates. The compound was incubated at room temperature with activated AKT isoform ([…] ) at the pre-determined concentration, for 45 minutes.
(§6) 2.5 μl of ATP solution mixed with 2.5 μl of AKT substrate peptide (FAM Crosstide (R7110) Molecular Devices) were dispensed into each well and the plate centrifuged at 1000 rpm for 20 seconds to ensure homogenous mixing of reagents. The reaction mix was incubated in the dark for one hour at room temperature.
(§7) The kinase reaction was stopped by the addition of Progressive Binding Solution and the mixture allowed to equilibrate for one hour in the dark, at room temperature.
(§8) The fluorescent polarisation generated in each well was determined using a […] Synergy 4 Hybrid plate reader. In brief, each reaction solution was excited at 485 nm with the emission measured at 528 nm in both the parallel and perpendicular pathway.
(§9) The polarisation value generated in each well was calculated by Gen5 software (Biotek) and the % inhibition of kinase activity compared to vehicle control was calculated via GraphPad Prism. IC50 values for each compound were calculated by non-linear regression analysis using Prism software.
(§10) All plates were internally controlled by two methods. Firstly, by calculating the signal:noise ratio; based on kinase polarisation without inhibitor and polarisation generated by complete reaction buffer in the absence of activated kinase. Secondly by determining IC50 values generated by known inhibitors of the AKT isoforms.

AKT2 = biological target: T2, AKT2 (Homo sapiens, UniProt P31751); assay: AKT Kinase Assay (IMAP fluorescent polarisation) vs AKT2
T2 construct: purchased SignalChem
T2 sequence (P31751 whole entry): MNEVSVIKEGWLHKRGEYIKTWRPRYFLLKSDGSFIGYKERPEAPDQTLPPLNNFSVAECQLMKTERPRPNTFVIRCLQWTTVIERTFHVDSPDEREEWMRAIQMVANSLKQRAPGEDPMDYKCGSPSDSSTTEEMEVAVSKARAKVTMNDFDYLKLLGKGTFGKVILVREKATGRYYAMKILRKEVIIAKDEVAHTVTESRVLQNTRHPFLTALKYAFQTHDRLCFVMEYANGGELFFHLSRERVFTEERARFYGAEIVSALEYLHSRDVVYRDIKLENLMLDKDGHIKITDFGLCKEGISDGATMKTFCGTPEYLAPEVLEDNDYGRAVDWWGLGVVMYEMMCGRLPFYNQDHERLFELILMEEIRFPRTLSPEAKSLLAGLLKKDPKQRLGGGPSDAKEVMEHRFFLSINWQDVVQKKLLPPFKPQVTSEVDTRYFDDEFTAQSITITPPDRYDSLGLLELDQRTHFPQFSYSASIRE
Method: as §1, §2, §3, §4, §5, §6, §7, §8, §9, §10

AKT3 = biological target: T3, AKT3 (Homo sapiens, UniProt Q9Y243); assay: AKT Kinase Assay (IMAP fluorescent polarisation) vs AKT3
T3 construct: purchased SignalChem
T3 sequence (Q9Y243 whole entry): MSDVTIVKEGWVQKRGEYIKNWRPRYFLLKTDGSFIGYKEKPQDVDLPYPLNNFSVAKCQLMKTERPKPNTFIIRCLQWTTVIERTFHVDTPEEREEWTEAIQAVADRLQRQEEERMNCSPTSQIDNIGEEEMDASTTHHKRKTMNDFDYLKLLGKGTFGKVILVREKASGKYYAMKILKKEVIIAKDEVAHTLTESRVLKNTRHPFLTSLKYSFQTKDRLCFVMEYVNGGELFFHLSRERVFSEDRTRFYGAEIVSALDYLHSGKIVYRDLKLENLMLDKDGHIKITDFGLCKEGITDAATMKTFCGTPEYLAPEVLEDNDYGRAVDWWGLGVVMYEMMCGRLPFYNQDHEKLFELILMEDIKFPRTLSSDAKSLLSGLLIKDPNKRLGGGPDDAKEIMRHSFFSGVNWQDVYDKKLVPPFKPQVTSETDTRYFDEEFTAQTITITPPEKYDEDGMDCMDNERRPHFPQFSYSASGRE
Method: as §1, §2, §3, §4, §5, §6, §7, §8, §9, §10

T1 sequence (P31749 whole entry): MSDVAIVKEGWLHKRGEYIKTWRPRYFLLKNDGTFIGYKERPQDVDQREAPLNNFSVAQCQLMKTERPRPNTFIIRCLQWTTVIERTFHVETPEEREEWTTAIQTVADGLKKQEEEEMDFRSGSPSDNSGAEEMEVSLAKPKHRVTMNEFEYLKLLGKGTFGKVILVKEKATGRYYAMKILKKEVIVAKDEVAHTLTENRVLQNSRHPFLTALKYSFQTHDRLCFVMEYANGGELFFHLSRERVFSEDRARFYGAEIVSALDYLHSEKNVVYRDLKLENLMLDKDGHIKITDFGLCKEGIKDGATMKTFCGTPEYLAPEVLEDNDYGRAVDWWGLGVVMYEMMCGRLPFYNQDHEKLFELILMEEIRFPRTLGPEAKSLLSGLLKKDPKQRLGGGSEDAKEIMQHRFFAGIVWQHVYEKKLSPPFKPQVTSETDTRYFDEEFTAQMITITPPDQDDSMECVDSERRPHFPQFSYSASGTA

Structure (SMILES)	IC50 (AKT1) [nM]	IC50 (AKT2) [nM]	IC50 (AKT3) [nM]
CC(=O)CN1C(=O)COc2nc(-c3ccc(C4(N)CCC4)cc3)c(-c3ccccc3)cc21 [Example 36, 6-(4-(1-aminocyclobutyl)phenyl)-1-(2-oxopropyl)-7-phenyl-1H-pyrido[2,3-b][1,4]oxazin-2(3H)-one]	100 to 1000	1000 to 10000	1000 to 10000
CC1(C)Cc2nc(-c3ccc(C4(N)CCC4)cc3)c(-c3ccccc3)cc2-c2n[nH]cc21 [Example 19, 1-(4-(4,4-dimethyl-8-phenyl-4,5-dihydro-2H-pyrazolo[3,4-f]quinolin-7-yl)phenyl)cyclobutanamine]	100 to 1000	100 to 1000	> 10000
NC1(c2ccc(-c3nc4c(cc3-c3ccccc3)N(Cc3ccccn3)C(=O)CO4)cc2)CCC1 [Example 56, 6-(4-(1-aminocyclobutyl)phenyl)-7-phenyl-1-(pyridin-2-ylmethyl)-1H-pyrido[2,3-b][1,4]oxazin-2(3H)-one]	100 to 1000	100 to 1000	100 to 1000
NC1(c2ccc(-c3nc4c(cc3-c3ccccc3)/C(=N/O)CCC4)cc2)CCC1 [Example 2, 2-(4-(1-aminocyclobutyl)phenyl)-3-phenyl-7,13-dihydroquinolin-5(6H)-one oxime]	100 to 1000	1000 to 10000	> 10000
NC1(c2ccc(-c3nc4c(cc3-c3ccccc3)N(Cc3cccnc3)C(=O)CO4)cc2)CCC1 [Example 46, 6-(4-(1-aminocyclobutyl)phenyl)-7-phenyl-1-(pyridin-3-ylmethyl)-1H-pyrido[2,3-b][1,4]oxazin-2(3H)-one]	100 to 1000	100 to 1000	100 to 1000
N#CCN1CCc2nc(-c3ccc(C4(N)CCC4)cc3)c(-c3ccccc3)cc2C1=O [Example 24, 2-(2-(4-(1-aminocyclobutyl)phenyl)-5-oxo-3-phenyl-7,8-dihydro-1,6-naphthyridin-6(5H)-yl)acetonitrile]	1000 to 10000	100 to 1000	> 10000
Cc1nc2c(n1O)CCc1nc(-c3ccc(C4(N)CCC4)cc3)c(-c3ccccc3)cc1-2 [Example 14, 7-(4-(1-aminocyclobutyl)phenyl)-2-methyl-8-phenyl-4,5-dihydro-3H-imidazo[4,5-f]quinolin-3-ol]	100 to 1000	1000 to 10000	1000 to 10000
CCN1C(=O)COc2nc(-c3ccc(C4(N)CCC4)cc3)c(-c3ccccc3)cc21 [Example 52, 6-(4-(1-aminocyclobutyl)phenyl)-1-ethyl-7-phenyl-1H-pyrido[2,3-b][1,4]oxazin-2(3H)-one]	100 to 1000	≤ 100	1000 to 10000
NC1(c2ccc(-c3nc4c(cc3-c3ccccc3)-c3n[nH]c(O)c3CC4)cc2)CCC1 [Example 7, 7-(4-(1-aminocyclobutyl)phenyl)-8-phenyl-4,5-dihydro-2H-pyrazolo[3,4f]quinolin-3-ol]	≤ 100	1000 to 10000	> 10000
NC1(c2ccc(-c3nc4c(cc3-c3ccccc3)-c3n[nH]c(N5CCOCC5)c3CC4)cc2)CCC1 [Example 13, 1-(4-(3-morpholino-8-phenyl-4,5-dihydro-2H-pyrazolo[3,4-f]quinolin-7-yl)phenyl)cyclobutanamine]	100 to 1000	100 to 1000	1000 to 10000
C#CCN1C(=O)COc2nc(-c3ccc(C4(N)CCC4)cc3)c(-c3ccccc3)cc21 [Example 32, 6-(4-(1-aminocyclobutyl)phenyl)-7-phenyl-1-(prop-2-yn-1-yl)-1H-pyrido[2,3-b][1,4]oxazin-2(3H)-one]	100 to 1000	100 to 1000	> 10000
NC(=O)CN1CCOc2nc(-c3ccc(C4(N)CCC4)cc3)c(-c3ccccc3)cc21 [Example 44, 2-(6-(4-(1-aminocyclobutyl)phenyl)-7-phenyl-2,3-dihydro-1H-pyrido[2,3-b][1,4]oxazin-1-yl)acetamide]	1000 to 10000	1000 to 10000	> 10000

More lines, now with the values ahead:

IC50 (AKT1) [nM]	IC50 (AKT2) [nM]	IC50 (AKT3) [nM]	Structure (SMILES)
≤ 100	100 to 1000	100 to 1000	C[C@]1(O)C[C@@](N)(c2ccc(-c3nc4c(cc3-c3ccccc3)-n3c(nnc3C(F)F)CO4)cc2)C1 [Example 128, (1r,3r)-3-amino-3-(4-(1-(difluoromethyl)-8-phenyl-4H-pyrido[2,3-b][1,2,4]triazolo[4,3-d][1,4]oxazin-7-0)phenyl)-1-methylcyclobutanol]
≤ 100	≤ 100	100 to 1000	C[C@]1(O)C[C@@](N)(c2ccc(-c3nc4c(cc3-c3ccccc3)N(CCF)C(=O)CO4)cc2)C1 [Example 145, 6-(4-((1r,3r)-1-amino-3-hydroxy-3-methylcyclobutyl)phenyl)-1-(2-fluoroethyl)-7-phenyl-1H-pyrido[2,3-b][1,4]oxazin-2(3H)-one]
1000 to 10000	≤ 100	1000 to 10000	CS(=O)(=O)CN1C(=O)COc2nc(-c3ccc(C4(N)CCC4)cc3)c(-c3ccccc3)cc21 [Example 82, 6-(4-(1-aminocyclobutyl)phenyl)-1-(methylsulfonylmethyl)-7-phenyl-1H-pyrido[2,3-b][1,4]oxazin-2(3H)-one]
100 to 1000	1000 to 10000	> 10000	Cc1nnc2n1-c1cc(-c3ccccc3)c(-c3ccc(C4(N)CCC4)cc3)nc1OC2 [Example 63, 1-(4-(1-methyl-8-phenyl-4H-pyrido[2,3-b][1,2,4]triazolo[4,3-d][1,4]oxazin-7-yl)phenyl)cyclobutanamine]
100 to 1000	1000 to 10000	> 10000	NC1(c2ccc(-c3nc4c(cc3-c3ccccc3)NC(=O)NC4)cc2)CCC1 [Example 87, 6-(4-(1-aminocyclobutyl)phenyl)-7-phenyl-3,4-dihydropyrido[3,2-d]pyrimidin-2(1H)-one]
100 to 1000	100 to 1000	100 to 1000	N[C@]1(c2ccc(-c3nc4c(cc3-c3ccccc3)-n3c(n[nH]c3=O)CO4)cc2)C[C@H](O)C1 [Example 141, 7-(4-((1s,3s)-1-amino-3-hydroxycyclobutyl)phenyl)-8-phenyl-2,4-dihydro-1H-pyrido[2,3-b][1,2,4]triazolo[4,3-d][1,4]oxazin-1-one]
100 to 1000	≤ 100	1000 to 10000	CC(C)CN1C(=O)COc2nc(-c3ccc(C4(N)CCC4)cc3)c(-c3ccccc3)cc21 [Example 102, 6-(4-(1-aminocyclobutyl)phenyl)-1-isobutyl-7-phenyl-1H-pyrido[2,3-b][1,4]oxazin-2(3H)-one]
100 to 1000	≤ 100	1000 to 10000	NC1(c2ccc(-c3nc4c(cc3-c3ccccc3)N(c3cccnc3)CCO4)cc2)CCC1 [Example 91, 1-(4-(7-phenyl-1-(pyridin-3-yl)-2,3-dihydro-1H-pyrido[2,3-b][1,4]oxazin-6-yl)phenyl)cyclobutanamine]
1000 to 10000	100 to 1000	1000 to 10000	CC(C)N1C(=O)COc2nc(-c3ccc(C4(N)CCC4)cc3)c(-c3ccccc3)cc21 [Example 57, 6-(4-(1-aminocyclobutyl)phenyl)-1-isopropyl-7-phenyl-1H-pyrido[2,3-b][1,4]oxazin-2(3H)-one]
100 to 1000	100 to 1000	1000 to 10000	CN1Cc2nc(-c3ccc(C4(N)CCC4)cc3)c(-c3ccccc3)cc2N(C)C1=O [Example 89, 6-(4-(1-aminocyclobutyl)phenyl)-1,3-dimethyl-7-phenyl-3,4-dihydropyrido[3,2-d]pyrimidin-2(1H)-one]
